Data from patent US20250144187A1, “COMBINATION OF HYDROLASES AND ANTI-MICROORGANISM DRUGS AND USES THEREOF” (CENTRE FOR EYE AND VISION RESEARCH LIMITED, priority 2023, published 2025).

Tests used:
MRSA [1] = assay: High-throughput screening of 4989 compounds with human lysozyme; assay type: cell-based, Staphylococcus aureus; conditions: for MRSA Combination / MRSA Drug only: OD600 at 24-hour; for MRSA Combination: compound 2.5 μM + 1 mg/ml lysozyme; for MRSA Drug only: compound 2.5 μM without lysozyme; for MRSA Inhibition ratio (%): compound 2.5 μM + 1 mg/ml lysozyme relative to compound only
Protocol: 1) High-throughput screening. […] Specifically, these compounds were added into bacterial suspensions (1×10^6 CFU/ml) in the […] microliter plate, in which each well contained 50 μl of lysogeny broth (LB) medium with or without 1 mg/ml lysozyme. LB medium in the absence of bacteria served as background group. Then, the real-time growth curves of MRSA were monitored per hour and for 24 hours. Experiments were performed with the biological replicates. Fly analyzing the absorbance 600 nm (OD600) of bacterial culture at the time point of 24-hour, the inhibition ratio (%) was calculated according to (ODcontrol−ODsample)/(ODcontrol−ODbackground)×100%. Here, the relative and apparent inhibition ratios were figured out by using the absorbance of bacterial suspension only containing compound and that without any drug treatment as ODcontrol, respectively. The relative and apparent inhibition ratios indicated the combination effect and potential toxicity of compound in combination effect. Synergy effect was defined as the relative inhibition ratio of ≥90%.

MRSE [2] = assay: as above; assay type: cell-based, Staphylococcus epidermis; conditions: for MRSE Combination / MRSE Drug only: OD600 at 24-hour; for MRSE Combination: compound 2.5 μM + 1 mg/ml lysozyme; for MRSE Drug only: compound 2.5 μM without lysozyme; for MRSE Inhibition ratio (%): compound 2.5 μM + 1 mg/ml lysozyme relative to compound only
MRSA [3] = assay: High-throughput screening of 1953 FDA-approved compounds with human lysozyme; assay type: cell-based, Staphylococcus aureus; conditions: compound 25 μM + 1 mg/ml lysozyme, 24-hour
Protocol: (§1) 1) High-throughput screening. According to standard screening method [Zhong. […] Commun. 11, 523 (2020)], 1953 FDA-approved compounds from our drugs library at a fixed concentrations of 25 μM were screened against methicillin-resistant Staphylococcus aureus (MRSA) and Staphylococcus epidermis (a coagulase negative Staphylococci, MRSE), in combination with human lysozyme. Specifically, these compounds were added into bacterial suspensions (1×10^5 CFU/ml, in LB medium) in the absence or presence of 1 mg/ml lysozyme. LB medium without bacteria served as background group. Then, the real-time growth curvet of MRSA were monitored per hour and for 24 hours. Absorbance at 600 am (OD600) of bacterial culture at the time point of 24-hour was also measured. The inhibition ratio (%) was calculated as (ODcontrol−ODsample)/(ODcontrol−ODbackground)×100%. […] Herein, the relative and apparent inhibition ratios indicated the combination effect and potential toxicity of compound, respectively. Synergy effect was defined as the relative inhibition ratio of ≥90%. All assays were performed in triplicate.

MRSE [4] = assay: as above; assay type: cell-based, Staphylococcus epidermis; conditions: compound 25 μM + 1 mg/ml lysozyme, 24-hour
Protocol: as §1

MRSA [5] = assay: Check board broth micro-dilution assay, tedizolid phosphate with lysozyme; assay type: cell-based, Staphylococcus aureus
Protocol: 2) Check board broth micro-dilution assays. According to standard two-fold dilution method [Sun. H et al., Nat. Commun. 11, 5263 (2020) tedizolid phosphate at different concentrations were added into fresh LB medium (or trypticase soy troth medium with 5% defibrinated horse blood) containing different concentrations of human lysozyme in 96-well plate. Then, 20 μl of 1.0×10^7 CFU/ml logarithmic cultures of MRSA or MRSE were added into each well of the plate and co-incubated overnight. Drug-free LB medium in the absence or presence of bacteria served as background control and growth control group, respectively. […] Thus, there would be a series of FICI values. In most of cases, the lowest one among these values was listed to reflect the best achieving degree of combination therapy. In terms of the lowest FICI, FICI≤0.5, 0.5<FICI<1 or FICI≥1, would indicate the combination has synergy, part synergy or non-synergy effects, respectively.

## CC(=O)c1c(O)cc(O)c(C(C)=O)c1O [2,4-Diacetylphloroglucinol]
MRSA [1]
  MRSA Combination: 0.0588
  MRSA Drug only: 0.2097
  MRSA Inhibition ratio (%): 95.09%
MRSE [2]
  MRSE Combination: 0.0686
  MRSE Drug only: 0.09
  MRSE Inhibition ratio (%): 54.87%

## COC(=O)[C@]12CCC(C)(C)C[C@H]1[C@H]1C(=O)C=C3[C@@]4(C)C=C(C#N)C(=O)C(C)(C)[C@@H]4CC[C@@]3(C)[C@]1(C)CC2 [Bardoxolone Methyl]
MRSA [3]
  Growth inhibition ratio (mean ± SD, %) MRSA: 29.95 ± 40.66%
MRSE [4]
  Growth inhibition ratio (mean ± SD, %) MRSE: 81.67 ± 1.61%

## CC1(C)S[C@@H]2[C@H](NC(=O)Cc3ccccc3)C(=O)N2[C@H]1C(=O)O [Benzylpenicillin potassium]
MRSA [3]
  Growth inhibition ratio (mean ± SD, %) MRSA: 48.39 ± 51.84%
MRSE [4]
  Growth inhibition ratio (mean ± SD, %) MRSE: 3.07 ± 4.93%

## N#CC(C#N)=NNc1cccc(Cl)c1 [CCCP, Carbonyl cyanide m-chlorophenyl hydrazone]
MRSA [5]; cells incubated with the inhibitor
  effect of ion-targeting inhibitor on FICI of tedizolid phosphate/lysozyme combination: significant increase in FICI

## CCCCCCNC(=O)n1cc(F)c(=O)[nH]c1=O [Carmofur]
MRSA [3]
  Growth inhibition ratio (mean ± SD, %) MRSA: 82.5 ± 7.73%
MRSE [4]
  Growth inhibition ratio (mean ± SD, %) MRSE: 78.06 ± 11.38%

## CC/C=C(\C(=O)N[C@@H]1C(=O)N2C(C(=O)OCOC(=O)C(C)(C)C)=C(COC(N)=O)CS[C@H]12)c1csc(N)n1.Cl [Cefcapene Pivoxil Hydrochloride]
MRSA [3]
  Growth inhibition ratio (mean ± SD, %) MRSA: 18.64 ± 7.49%
MRSE [4]
  Growth inhibition ratio (mean ± SD, %) MRSE: 3.23 ± 3.04%

## CO[C@@]1(NC(=O)CSCC#N)C(=O)N2C(C(=O)O)=C(CSc3nnnn3C)CS[C@@H]21 [Cefmetazole sodium]
MRSA [3]
  Growth inhibition ratio (mean ± SD, %) MRSA: 58.25 ± 13.23%
MRSE [4]
  Growth inhibition ratio (mean ± SD, %) MRSE: 6 ± 29.05%

## CCN1CCN(C(=O)N[C@@H](C(=O)N[C@@H]2C(=O)N3C(C(=O)O)=C(CSc4nnnn4C)CS[C@H]23)c2ccc(O)cc2)C(=O)C1=O [Cefoperazone]
MRSA [3]
  Growth inhibition ratio (mean ± SD, %) MRSA: 71.74 ± 5.27%
MRSE [4]
  Growth inhibition ratio (mean ± SD, %) MRSE: −16.2 ± 8.93%

## CO/N=C(\C(=O)N[C@@H]1C(=O)N2C(C(=O)O)=C(Cn3ccc(=N)n3CCO)CS[C@H]12)c1csc(N)n1.O=S(=O)(O)O [Cefoselis Sulfate]
MRSA [3]
  Growth inhibition ratio (mean ± SD, %) MRSA: 40.55 ± 6.2%
MRSE [4]
  Growth inhibition ratio (mean ± SD, %) MRSE: 51.56 ± 10.39%

## CC1=C(C(=O)O)N2C(=O)[C@@H](NC(=O)[C@H](N)C3=CCC=CC3)[C@H]2SC1 [Cefradine]
MRSA [3]
  Growth inhibition ratio (mean ± SD, %) MRSA: 48.66 ± 13.26%
MRSE [4]
  Growth inhibition ratio (mean ± SD, %) MRSE: 33.52 ± 23.07%

## CC(C)(O/N=C(\C(=O)N[C@@H]1C(=O)N2C(C(=O)[O-])=C(C[n+]3ccccc3)CS[C@H]12)c1csc(N)n1)C(=O)O [Ceftazidime Pentahydrate]
MRSA [3]
  Growth inhibition ratio (mean ± SD, %) MRSA: 45.07 ± 6.86%
MRSE [4]
  Growth inhibition ratio (mean ± SD, %) MRSE: 34.84 ± 3.23%

## CO/N=C(\C(=O)N[C@@H]1C(=O)N2C(C(=O)O)=C(CSc3nc(=O)c(=O)[nH]n3C)CS[C@H]12)c1csc(N)n1 [Ceftriaxone Sodium]
MRSA [3]
  Growth inhibition ratio (mean ± SD, %) MRSA: 8.83 ± 1.45%
MRSE [4]
  Growth inhibition ratio (mean ± SD, %) MRSE: 34.56 ± 35.01%

## [H]/N=C(\N/C(=N/[H])NCCCCCCNC(=N)NC(=N)Nc1ccc(Cl)cc1)Nc1ccc(Cl)cc1 [Chlorhexidine 2HCl]
MRSA [3]
  Growth inhibition ratio (mean ± SD, %) MRSA: 94.16 ± 0.25%
MRSE [4]
  Growth inhibition ratio (mean ± SD, %) MRSE: 12.3 ± 18.27%

## CNC[C@H](O)[C@@H](O)[C@H](O)[C@H](O)CO.Nc1nc(-n2cc(C(=O)O)c(=O)c3cc(F)c(N4CC(O)C4)c(Cl)c32)c(F)cc1F [Delafloxacin (meglumine)]
MRSA [1]
  MRSA Combination: 0.0629
  MRSA Drug only: 0.177
  MRSA Inhibition ratio (%): 90.56%
MRSE [2]
  MRSE Combination: 0.0639
  MRSE Drug only: 0.1374

## C[C@@H](O)[C@H]1C(=O)N2C(C(=O)O)=C(S[C@@H]3CN[C@H](CNS(N)(=O)=O)C3)[C@H](C)[C@H]12 [Doripenem Hydrate]
MRSA [3]
  Growth inhibition ratio (mean ± SD, %) MRSA: 82.4 ± 5.63%
MRSE [4]
  Growth inhibition ratio (mean ± SD, %) MRSE: 11.18 ± 6.16%

## CCOC(=O)c1ccc(O)c(O)c1 [Ethyl 3,4-dihydroxybenzoate]
MRSA [1]
  MRSA Combination: 0.064
  MRSA Drug only: 0.5805
  MRSA Inhibition ratio (%): 97.54%
MRSE [2]
  MRSE Combination: 0.0703
  MRSE Drug only: 0.6328
  MRSE Inhibition ratio (%): 96.68%

## N#C/C(=C1/SC[C@@H](c2ccc(Cl)cc2Cl)S1)n1ccnc1 [Luliconazole]
MRSA [3]
  Growth inhibition ratio (mean ± SD, %) MRSA: −9.69 ± 5.58%
MRSE [4]
  Growth inhibition ratio (mean ± SD, %) MRSE: 22.39 ± 10.76%

## C[C@@H](O)[C@H]1C(=O)N2C(C(=O)O)=C(S[C@@H]3CN[C@H](C(=O)N(C)C)C3)[C@H](C)[C@H]12 [Meropenem Trihydrate]
MRSA [3]
  Growth inhibition ratio (mean ± SD, %) MRSA: 48.19 ± 11.14%
MRSE [4]
  Growth inhibition ratio (mean ± SD, %) MRSE: 20.45 ± 65.79%

## CC1(C)S[C@@H]2[C@H](NC(=O)[C@H](NC(=O)N3CCN(S(C)(=O)=O)C3=O)c3ccccc3)C(=O)N2[C@H]1C(=O)O [Mezlocillin Sodium]
MRSA [3]
  Growth inhibition ratio (mean ± SD, %) MRSA: 90.46 ± 1.59%
MRSE [4]
  Growth inhibition ratio (mean ± SD, %) MRSE: 6.93 ± 8.22%

## CO[C@@]12[C@H](COC(N)=O)C3=C(C(=O)C(C)=C(N)C3=O)N1C[C@@H]1N[C@@H]12 [Mitomycin C]
MRSA [3]
  Growth inhibition ratio (mean ± SD, %) MRSA: 66.02 ± 45.26%
MRSE [4]
  Growth inhibition ratio (mean ± SD, %) MRSE: 39.12 ± 43.57%

## CCC(=O)c1ccc(O)cc1 [Paroxypropione]
MRSA [1]
  MRSA Combination: 0.0655
  MRSA Drug only: 0.3624
  MRSA Inhibition ratio (%): 95.34%
MRSE [2]
  MRSE Combination: 0.0445
  MRSE Drug only: 0.5254
  MRSE Inhibition ratio (%): 101.37%

## CO[C@H]1/C=C/O[C@@]2(C)Oc3c(C)c(O)c4c(c3C2=O)C(=O)C=C(NC(=O)/C(C)=C\C=C\[C@H](C)[C@H](O)[C@@H](C)[C@@H](O)[C@@H](C)[C@H](OC(C)=O)[C@@H]1C)C4=O [Rifamycin S]
MRSA [1]
  MRSA Combination: 0.074
  MRSA Drug only: 0.1545
  MRSA Inhibition ratio (%): 77.78%
MRSE [2]
  MRSE Combination: 0.0967
  MRSE Drug only: 0.5935
  MRSE Inhibition ratio (%): 91.58%

## CC1(C)S[C@@H]2[C@H](NC(=O)[C@H](N)c3ccccc3)C(=O)N2[C@H]1C(=O)OCOC(=O)[C@@H]1N2C(=O)C[C@H]2S(=O)(=O)C1(C)C [Sultamicillin]
MRSA [3]
  Growth inhibition ratio (mean ± SD, %) MRSA: 58.05 ± 16.75%
MRSE [4]
  Growth inhibition ratio (mean ± SD, %) MRSE: 45.94 ± 13.49%

## C#Cc1cccc(Nc2nc3ccccc3nc2Nc2cccc(C#C)c2)c1.Cl.Cl [TD52 (dihydrochloride)]
MRSA [1]
  MRSA Combination: 0.0926
  MRSA Drug only: 0.6512
  MRSA Inhibition ratio (%): 93.07%
MRSE [2]
  MRSE Combination: 0.1057
  MRSE Drug only: 0.402

## CC[C@H]1OC(=O)C[C@@H](O)[C@H](C)[C@@H](O[C@@H]2O[C@H](C)[C@@H](O)[C@H](N(C)C)[C@H]2O)[C@@H](CCN2C[C@H](C)C[C@H](C)C2)C[C@@H](C)C(=O)/C=C/C(C)=C/[C@@H]1CO[C@@H]1O[C@H](C)[C@@H](O)[C@@H](OC)[C@H]1OC [Tilmicosin]
MRSA [3]
  Growth inhibition ratio (mean ± SD, %) MRSA: 91.59 ± 0.63%
MRSE [4]
  Growth inhibition ratio (mean ± SD, %) MRSE: 4.91 ± 8.1%

## SCP1-IN-1
MRSA [1]
  MRSA Combination: 0.0766
  MRSA Drug only: 0.1762
  MRSA Inhibition ratio (%): 79.55%
MRSE [2]
  MRSE Combination: 0.0698
  MRSE Drug only: 0.1091
  MRSE Inhibition ratio (%): 67.64%

## Sertaconazole (nitrate)
MRSA [1]
  MRSA Combination: 0.2603
  MRSA Drug only: 0.593
  MRSA Inhibition ratio (%): 61.38%
MRSE [2]
  MRSE Combination: 0.079
  MRSE Drug only: 0.4977
  MRSE Inhibition ratio (%): 93.73%

## poly-l-lysine
MRSA [5]; poly-l-lysine in place of lysozyme, combined with tedizolid phosphate
  FICI: 0.375
